# Measured values: the supplement of paper PMC8671470
# Counter-ions that a name gives are not always drawn.
# System: NOMO-1
# Experiment: cell viability (% survival relative to DMSO control, bortezomib = 0%); higher = less cytotoxic
# Settings: 1000 nM; 72 h
# Summary of the method: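 Fifteen myeloid leukaemia cell lines were exposed to compounds at 1, 10, 100, 1000 or 10000 nM in 384-well plates for 72 h at 37 °C and 5% CO2. Viability was read by CellTiter-Glo luminescence and normalised, with vehicle as 100% and a 10 µM positive control as 0%. Values are percent survival averaged over duplicates.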
row,Compound,cell viability
1,CCCCCN(C)CCC(O)(P(=O)(O)O)P(=O)(O)O [Ibandronate],109%
2,Cc1cc(C(=O)NNCc2ccccc2)no1 [Isocarboxazid],112%
3,CCn1c(=Cc2cccc[n+]2CC)sc(=C2Sc3ccccc3N2C)c1=O [MKT 077],94%
4,COC(=O)c1cc2c(C(F)(F)F)cc(-c3ccccc3)cc2n1O [NHI-2],97.4%
5,CCCCCCCC/C=C\CCCCCCCC(=O)Nc1ccccc1 [Octadec-9-Enoic Acid Phenylamide],99.2%
6,CC[C@H](C)[C@H](N)C(=O)N1CCSC1 [P32/98],102%
7,OC[C@H]1O[C@@H](n2cnc3c2N=CNC[C@H]3O)C[C@@H]1O [Pentostatin],98.8%
8,CC(C)CC(=O)N[C@H](C(=O)N[C@H](C(=O)N[C@@H](CC(C)C)[C@@H](O)CC(=O)N[C@@H](C)C(=O)N[C@@H](CC(C)C)[C@@H](O)CC(=O)O)C(C)C)C(C)C [Pepstatin A],104%
9,Cc1cccc(Nc2cc(Cl)nc(SCC(=O)O)n2)c1C [Pirinixic acid],90.5%
10,C[C@]12C=CC(=O)C=C1CC[C@@H]1[C@@H]2[C@@H](O)C[C@@]2(C)[C@H]1CC[C@]2(O)C(=O)CO [Prednisolone],88.7%
11,N[C@@H](CC(=O)N1CCn2c(nnc2C(F)(F)F)C1)Cc1cc(F)c(F)cc1F [Sitagliptin],101%
12,CCCc1nc(C)c2c(=O)nc(-c3cc(S(=O)(=O)N4CCN(CC)CC4)ccc3OCC)[nH]n12 [Vardenafil],101%
13,CCc1c(C(=O)C(N)=O)c2c(OCC(=O)O)cccc2n1Cc1ccccc1 [Varespladib],115%
14,N#Cc1ccc(N(Cc2ccc(Br)cc2)n2cnnc2)cc1 [YM511],104%
15,N#C/C(=C\c1ccc(O)cc1)C(=O)O [alpha-cyano-4-hydroxycinnamic acid],104%

# Same assay, conditions: 10000 nM; 72 h
row,Compound,cell viability
1,CN(CCCOc1ccc(Cc2ccccc2)cc1)CCC(=O)O,101%
2,COc1ccc2c(NC(=O)Nc3cccc(C(F)(F)F)n3)ccnc2c1,113%
3,Cc1nc(-c2ccccc2)sc1C(=O)Nc1ccc(S(N)(=O)=O)cc1,99.6%
4,C=CC(=O)c1ccc(O)cc1 [4-Acryloylphenol],2.21%
5,O=c1cc(-c2ccccc2)oc2c1ccc1ccccc12 [Alpha-Naphtoflavone],95.2%
6,Cc1c(Cl)cccc1S(=O)(=O)Nc1nc(CC(=O)N2CCN(C)CC2)cs1 [BVT-2733],95.4%
7,CCc1oc2ccccc2c1C(=O)c1cc(Br)c(O)c(Br)c1 [Benzbromarone],109%
8,CCOC(=O)c1sc(NC(=O)c2ccco2)c(SC#N)c1C [CBR-5884],94.5%
9,CCCCCOC(=O)Nc1nc(=O)n([C@@H]2O[C@H](C)[C@@H](O)[C@H]2O)cc1F [Capecitabine],99.9%
10,Cc1ccc(-c2cc(C(F)(F)F)nn2-c2ccc(S(N)(=O)=O)cc2)cc1 [Celecoxib],95.5%
11,O=c1c(-c2ccc(O)cc2)coc2cc(O[C@@H]3O[C@H](CO)[C@@H](O)[C@H](O)[C@H]3O)ccc12 [Daidzin],103%
12,C[C@H]1c2cccc(O)c2C(=O)C2C(=O)[C@]3(O)C(=O)C(C(N)=O)C(=O)[C@@H](N(C)C)[C@@H]3[C@@H](O)[C@@H]21 (stereo partly drawn) [Doxycycline],90.3%
13,OC[C@H]1NC[C@H](O)[C@@H](O)[C@@H]1O [Duvoglustat],105%
14,O=C(NCCN1CCC(n2c(O)nc3ccccc32)CC1)c1cc2cc(F)ccc2[nH]1 [FIPI],95.3%
15,CCN(CCO)CCCC(C)Nc1ccnc2cc(Cl)ccc12 (stereo not drawn) [Hydroxychloroquine sulfate],98.2%
16,O=C([O-])CC(O)(C(=O)[O-])C(O)C(=O)[O-].[K+].[K+].[K+] (stereo not drawn) [Hydroxycitrate],102%
17,CCCCCN(C)CCC(O)(P(=O)(O)O)P(=O)(O)O [Ibandronate],112%
18,Cc1cc(C(=O)NNCc2ccccc2)no1 [Isocarboxazid],92%
19,CCn1c(=Cc2cccc[n+]2CC)sc(=C2Sc3ccccc3N2C)c1=O [MKT 077],95.2%
20,COC(=O)c1cc2c(C(F)(F)F)cc(-c3ccccc3)cc2n1O [NHI-2],102%
21,CCCCCCCC/C=C\CCCCCCCC(=O)Nc1ccccc1 [Octadec-9-Enoic Acid Phenylamide],99.6%
22,CC[C@H](C)[C@H](N)C(=O)N1CCSC1 [P32/98],92.9%
23,OC[C@H]1O[C@@H](n2cnc3c2N=CNC[C@H]3O)C[C@@H]1O [Pentostatin],106%
